Data: patent US12065433B2, “Positive allosteric modulators of the muscarinic acetylcholine receptor M1” (Vanderbilt University, priority 2018, dated 2024)

Target: T1, human mAChR M1 (Homo sapiens, UniProt P11229)
T1 sequence (P11229 1-460): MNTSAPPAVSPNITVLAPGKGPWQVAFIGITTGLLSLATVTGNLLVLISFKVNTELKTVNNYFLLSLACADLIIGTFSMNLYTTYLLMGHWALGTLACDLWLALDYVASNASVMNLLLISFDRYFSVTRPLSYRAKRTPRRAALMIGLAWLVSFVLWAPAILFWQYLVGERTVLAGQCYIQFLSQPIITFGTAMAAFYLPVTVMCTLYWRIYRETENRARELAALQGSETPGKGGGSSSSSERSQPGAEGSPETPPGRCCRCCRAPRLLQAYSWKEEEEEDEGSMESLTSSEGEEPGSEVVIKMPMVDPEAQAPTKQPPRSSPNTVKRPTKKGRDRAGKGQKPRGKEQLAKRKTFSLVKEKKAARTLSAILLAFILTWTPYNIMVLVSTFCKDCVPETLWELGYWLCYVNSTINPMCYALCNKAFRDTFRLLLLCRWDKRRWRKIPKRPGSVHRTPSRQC
Experiment: mAChR M1 cell-based functional assay (calcium mobilization, PAM mode)
Details: CHO-K1 cells stably expressing hM1, calcium flux (Fluo-4); for EC50: concentration-dependent increase in the EC20 acetylcholine response; for Emax: potentiation of EC20 acetylcholine response
Text: Chinese hamster ovary (CHO-K1) cells stably expressing rat (r)M1 were purchased from the American Type Culture Collection and cultured according to their indicated protocol. CHO cells stably expressing human (h)M2, hM3, and hM5 were described previously (Levey, et al., 1991); hM1 and hM4 cDNAs were purchased from Missouri S&T cDNA Resource; rM4 cDNA was provided by T. I. Bonner (National Institutes of Health, Bethesda, MD). rM2 and rM3 were cloned from a rat brain cDNA library and sequence verified. hM1, rM2, rM3, hM4, and rM4 cDNAs were used to stably transfect CHO-K1 cells purchased from the American Type Culture Collection using Lipofectamine2000. To make stable rM2, hM2, rM3, hM4, and rM4 cell lines for use in calcium mobilization assays, these cells also were stably transfected with a chimeric G-protein (Gqi5) (provided by B. R. Conklin, University of California, San Francisco) using Lipofectamine 2000. rM1, hM1, rM3, hM3, rM5, and hM5 cells were grown in Ham's F-12 medium containing 10% heat-inactivated fetal bovine serum (FBS), 20 mM HEPES, and 50 μg/mL G418 sulfate. rM2-Gqi5, hM2-Gqi5, and hM4-Gqi5 cells were grown in the same medium also containing 500 μg/mL Hygromycin B. Stable rM4-Gqi5 cells were grown in DMEM containing 10% heat-inactivated FBS, 20 mM HEPES, 400 μg/mL G418 sulfate, and 500 μg/mL Hygromycin B.
For high throughput measurement of agonist-evoked increases in intracellular calcium, CHO-K1 cells stably expressing muscarinic receptors were plated in growth medium lacking G418 and hygromycin at 15,000 cells/20 μL/well in Greiner 384-well black-walled, tissue culture (TC)-treated, clear-bottom plates (VWR). Cells were incubated overnight at 37° C. and 5% CO2. The next day, cells were washed using an ELX 405 (BioTek) with four washes (80 μL) of assay buffer then aspirated to 20 μL. Next, 20 μL of 16 μM Fluo-4/acetoxymethyl ester (Invitrogen, Carlsbad, CA) prepared as a 2.3 mM stock in DMSO and mixed in a 1:1 ratio with 10% (w/v) Pluronic F-127 and diluted in assay buffer was added to the wells and the cell plates were incubated for 50 min at 37° C. and 5% CO2. Dye was removed by washing with the ELX 405 (four […], washes of assay buffer) then aspirated to 20 μL. Compound master plates were formatted in an 11 point CRC format (1:3 dilutions) in 100% DMSO with a starting concentration of 10 mM using the BRAVO liquid handler (Agilent). Test compound CRCs were then transferred to daughter plates (240 nL) using the Echo acoustic plate reformatter (Labcyte, Sunnyvale, CA) and then diluted into assay buffer (40 μL) to a 2× stock using a Thermo Fisher Combi (Thermo Fisher Scientific, Waltham, MA).
Calcium flux was measured using the Functional Drug Screening System (FDSS) 6000 (Hamamatsu Corporation, Tokyo, Japan) as an increase in the fluorescent static ratio. Compounds were applied to cells (20 μL, 2×) using the automated system of the FDSS 6000 at 4 s into the 300 s protocol and the data were collected at 1 Hz. At 144 s into the 300 s protocol, 10 μL of an EC20 concentration of the muscarinic receptor agonist acetylcholine was added (5×), followed by the addition of 12 μL an EC80 concentration of acetylcholine at the 230 s time point (5×). Agonist activity was analyzed as a concentration-dependent increase in calcium mobilization upon compound addition. Emax values for agonist activity are expressed relative to the maximum for acetylcholine. Positive allosteric modulator activity was analyzed as a concentration-dependent increase in the EC20 acetylcholine response. Antagonist activity was analyzed as a concentration-dependent decrease in the EC80 acetylcholine response. Concentration-response curves were generated using a four-parameter logistical equation in XLfit curve fitting software (IDBS, Bridgewater, NJ) for Excel (Microsoft, Redmond, WA) or Prism (GraphPad Software, Inc., San Diego, CA). […]

Structure (SMILES)	EC50 [nM]	Emax [%]
[2H]C1([2H])Oc2c(C(=O)N[C@H]3CCCC[C@@H]3O)cc(Cc3ccc(-n4cccn4)cc3)c(C)c2O1 [Compound 23, 6-(4-(1H-pyrazol-1-yl)benzyl)-N-((1S,2S)-2-hydroxycyclohexyl)-7-methylbenzo[d][1,3]dioxole-2,2-d2-4-carboxamide]	210	75
Cn1ccc(-c2ccc(Cc3cc4c(c(C(=O)N[C@H]5CCCC[C@@H]5O)c3)OCO4)cn2)n1 [Compound 11, N-[(1S,2S)-2-hydroxycyclohexyl]-6-[[6-(1-methylpyrazol-3-yl)-3-pyridyl]methyl]-1,3-benzodioxole-4-carboxamide]	810	76
O=C(N[C@H]1CCCCC[C@@H]1O)c1cc(Cc2ccc(-n3cccn3)cc2)cc2c1OCO2 [Compound 6, N-[(1S,2S)-2-hydroxycycloheptyl]-6-[(4-pyrazol-1-ylphenyl)methyl]-1,3-benzodioxole-4-carboxamide]	1040	76
